{"source": "patent US20220091133A1", "about": "“METHODS AND ASSAYS FOR IMMUNE PHENOTYPING” (Washington University, priority 2020, published 2022)", "key": {"[1]": {"assay": "Serial plasma cytokines, ProcartaPlex 9-plex Luminex panel (Example 5)", "format": "in vivo, human", "details": "plasma of critically ill COVID-19 patient"}, "[2]": {"tested_on": "PBMCs (monocyte TNF-α production)", "format": "cell-based, human"}, "[3]": {"tested_on": "PBMCs (myeloid cell TNF-α production)", "assay": "PBMC ELISpot, LPS-stimulated TNF-α production (Example 2)", "format": "cell-based, human", "protocol": "Fresh whole blood samples were processed within 90 min of collection as previously described (28). Briefly, blood was diluted in an equal volume of PBS and layered carefully on Ficoll Paque PLUS (GE Healthcare). The PBMC fraction was isolated following centrifugation at 500×g for 30 min at room temperature. The number of total PBMCs was determined with a Vi-CELL Viability Analyzer (Beckman Coulter, Brea, Calif.). Flow cytometry was performed on PBMC fraction for cell typing.\nInnate and adaptive immune function was assessed using ELISpot analysis by measurement of the production of IFN-γ and TNF-α in ex vivo-stimulated cells following overnight culture. Capture Ab precoated 96-well polyvinylidene difluoride-backed strip plates were used for single color enzymatic assays (ImmunoSpot; Cellular Technology [CTL], Cleveland, Ohio) for detection of human IFN-γ and TNF-α. ELISpot culture procedure was followed as directed using instructions from the ELISpot kit. Samples were run in duplicate for each test condition. Plates were prepared with stimulant and were incubated at 37° C. and 5% CO2 for 30 min prior to plating cells. Identical conditions were prepared for comparison of whole blood assay to PBMC assay, and culture media alone was used as a negative control. Combination of 500 ng/ml of anti-CD3 (clone HIT3a; BioLegend) with 2.5 μg/ml of anti-CD28 (clone CD28.2; BioLegend) Abs were used to induce IFN-γ, and 2.5 ng/ml LPS (from Salmonella abortus equi S-form, ALX-581-009; Enzo Life Sciences, Farmingdale, N.Y.) was used to induce TNF-α wells. Total well volume for all samples was 200 μl. PBMCs were plated into wells in quantities of 2.5×10^4 cells per well for IFN-γ and 2.5×10^3 cells per well for TNF-α. […]\nSamples were scanned, analyzed, and quality controlled for spot count, spot area, and TWI using a Cellular Technology series 6 ImmunoSpot Universal Analyzer with ImmunoSpot 7.0 professional software (Cellular Technology Analyzers, Shaker Heights, Ohio). […]\nThe number of cytokine-secreting cells present in each ELISpot well is referred to as spot-forming units (SFU) and is reported in two distinct ways. […] The number of lymphocytes in each well was determined based upon the absolute lymphocyte count as measured by the patients' complete blood count. For ELISpot studies involving PBMCs, flow cytometry was performed on the PBMC fraction, and the number of lymphocytes, monocytes, and residual neutrophils were determined. […] Samples were acquired on FACScan (Becton Dickenson, Franklin Lakes, N.J.) with a five-color modification (CyTek Biosciences, Fremont, Calif.) and analyzed using FlowJo 10.2 (FlowJo, Ashland, Oreg.) as previously described (28). […]"}, "[4]": {"tested_on": "T cells (IFN-γ production)", "assay": "IFN-γ ELISPOT on patient PBMCs before and during IL-7 therapy (Example 3)", "format": "in vivo, human", "details": "anti-CD3/anti-CD28 ex vivo stimulation, before vs during IL-7 therapy", "protocol": "The effect of IL-7 in terms of improving the patient's T cell function was evaluated by an ex vivo stimulation assay using anti-CD3 and anti-CD28 antibodies (BioLegend, San Diego, Calif., USA) on an IFN-γ ELISPOT assay (Cellular Technologies Limited, Shaker Heights, Ohio, USA), which was performed as previously described."}, "[5]": {"tested_on": "Trichosporon asahii and Saksenaea species", "assay": "Tissue, wound, blood and bone cultures of the fungal wound sepsis patient", "format": "in vivo, human", "excerpt": "They were aggressively treated with daily or alternating-day operative debridement, broad-spectrum parenteral and topical antibacterial and antifungal therapy. Antimicrobial therapy included ceftazidime, metronidazole, trimethoprim-sulfamethoxazole, micafungin, amphotericin B, and posaconazole (FIG. 29), as well as VERAFLO vac instillation of antimicrobials into the wound bed. The patient's polymicrobial soft tissue infection continued to advance and was accompanied by multisystem organ failure and shock. Over a 4-week period, they required debridement of >3000 cm^2 of skin, subcutaneous tissue, and muscle involving the entire perineum, bilateral thighs, buttocks, and circumferential abdominal wall (FIG. 28B).\nTissue histology also became negative for fungus at approximately the same time as tissue cultures (FIG. 28E)."}, "[6]": {"tested_on": "PBMCs (T cell IFN-γ production)", "format": "cell-based, human"}, "[7]": {"tested_on": "sepsis-induced lymphopenia", "details": "clinical trial, reference 54; cited from earlier work"}}}
{"substance": "IL-7: recombinant human IL-7, immunoadjuvant and potent T cell activator; R&D Systems ex vivo, RevImmune for patients", "values": [{"measurement": "IFN-γ plasma concentration", "setting": "[1]; Post IL-7, Day 12", "value": "Undetectable"}, {"measurement": "IL-1β plasma concentration", "setting": "[1]; Post IL-7, Day 12", "value": "Undetectable"}, {"measurement": "IL-2 plasma concentration", "setting": "[1]; Post IL-7, Day 12", "value": "Undetectable"}, {"measurement": "IL-6 plasma concentration", "setting": "[1]; Post IL-7, Day 12", "value": 30, "unit": "pg/mL"}, {"measurement": "IL-10 plasma concentration", "setting": "[1]; Post IL-7, Day 12", "value": 2.71, "unit": "pg/mL"}, {"measurement": "IL-12 plasma concentration", "setting": "[1]; Post IL-7, Day 12", "value": "Undetectable"}, {"measurement": "IL-17 plasma concentration", "setting": "[1]; Post IL-7, Day 12", "value": 0.14, "unit": "pg/mL"}, {"measurement": "Tumor necrosis factor-α plasma concentration", "setting": "[1]; Post IL-7, Day 12", "value": "Undetectable"}, {"measurement": "IFN-γ plasma concentration", "setting": "[1]; Post IL-7, Day 21", "value": "Undetectable"}, {"measurement": "IL-1β plasma concentration", "setting": "[1]; Post IL-7, Day 21", "value": "Undetectable"}, {"measurement": "IL-2 plasma concentration", "setting": "[1]; Post IL-7, Day 21", "value": "Undetectable"}, {"measurement": "IL-6 plasma concentration", "setting": "[1]; Post IL-7, Day 21", "value": 6, "unit": "pg/mL"}, {"measurement": "IL-10 plasma concentration", "setting": "[1]; Post IL-7, Day 21", "value": 0.83, "unit": "pg/mL"}, {"measurement": "IL-12 plasma concentration", "setting": "[1]; Post IL-7, Day 21", "value": "Undetectable"}, {"measurement": "IL-17 plasma concentration", "setting": "[1]; Post IL-7, Day 21", "value": 0.12, "unit": "pg/mL"}, {"measurement": "Tumor necrosis factor-α plasma concentration", "setting": "[1]; Post IL-7, Day 21", "value": "Undetectable"}, {"measurement": "mean increase in LPS-induced TNF-α-producing cells after IL-7 coincubation", "setting": "[2]; COVID-19 patient PBMCs, LPS + IL-7, not statistically significant", "value": 101, "unit": "%"}, {"measurement": "effect of IL-7 on monocyte TNF-α production", "setting": "[2]; COVID-19 patients, LPS vs LPS + IL-7, n=25", "value": "did not increase"}, {"measurement": "septic patients in whom IL-7 increased TNF-α production", "setting": "[3]; PBMC ELISpot, patients out of total", "value": "13/19"}, {"measurement": "change in TNF-α SFUs with IL-7", "setting": "[3]; PBMC, CINS", "value": "significant increase"}, {"measurement": "change in TNF-α SFUs with IL-7", "setting": "[3]; PBMCs, healthy subjects", "value": "no change"}, {"measurement": "overall increase in TNF-α SFUs with IL-7", "setting": "[3]; PBMCs, septic patients, p<0.01", "value": 97, "unit": "%"}, {"measurement": "increase in the proportion of activated, IFN-γ-producing T cells from baseline", "setting": "[4]", "value": 1.4, "unit": "fold"}, {"measurement": "tissue cultures after initiation of IL-7 therapy", "setting": "[5]; by the fifth dose of IL-7", "value": "persistently negative cultures"}, {"measurement": "time blood, wound and bone cultures stayed negative for bacterial or fungal pathogens after completing IL-7 therapy", "setting": "[5]; human, in vivo", "value": 40, "unit": "days"}, {"measurement": "mean number of IFN-γ-producing T cells following ex vivo administration of IL-7", "setting": "[6]; COVID-19 patient PBMCs, anti-CD3/anti-CD28 + IL-7 50 ng/mL overnight, control without IL-7 101±21, P<0.0001", "value": "201±36"}, {"measurement": "increase of IFN-γ production of stimulated T cells by ex vivo IL-7", "setting": "[6]; COVID-19 patients, ELISpot", "value": "~2", "unit": "fold"}, {"measurement": "effect of IL-7 to increase the number of IFN-γ-producing T cells", "setting": "[6]; septic and CINS patients", "value": "also observed"}, {"measurement": "effect on sepsis-induced lymphopenia", "setting": "[7]", "value": "reversed sepsis-induced lymphopenia"}, {"measurement": "tolerability of IL-7 in patients with sepsis", "setting": "[7]", "value": "well tolerated"}]}
